For 14 molecules, melting point results are on record in US9187426B2, “Organic compounds” (Novartis AG, priority 2008, dated 2015).

The structures appear in SMILES notation.

A word on the melting point: it is the temperature of the solid-liquid transition. Turning to `O=C(NCc1csc(C(F)(F)F)n1)c1ccnc(N2CCN(Cc3ccc(F)cc3)C2=O)c1` [Example 14.15, 2-(3-(4-fluorobenzyl)-2-oxoimidazolidin-1-yl)-N-((2-(trifluoromethyl)thiazol-4-yl)methyl)isonicotinamide], the melting point was in the range of 66 to 68 °C.
Molecule `Cc1nc(-c2ccccc2)sc1CNC(=O)c1ccnc(N2CCN(Cc3ccc(F)cc3)C2=O)c1` [Example 14.16, 2-(3-(4-fluorobenzyl)-2-oxoimidazolidin-1-yl)-N-((4-methyl-2-phenylthiazol-5-yl)methyl)isonicotinamide] gave a melting point of 182 to 184 °C.
In the case of `O=C(NCc1ccccc1)c1ccnc(N2CCN(Cc3ccc(F)cc3)C2=O)c1` [Example 15, N-benzyl-2-(3-(4-fluorobenzyl)-2-oxoimidazolidin-1-yl)isonicotinamide], the melting point lay within 167 to 169 °C.
As for `O=C(NCc1cccnc1)c1ccnc(N2CCN(Cc3ccc(F)cc3)C2=O)c1` [Example 15.1, 2-(3-(4-fluorobenzyl)-2-oxoimidazolidin-1-yl)-N-(pyridin-3-ylmethyl)isonicotinamide], the melting point fell in the range of 153 to 155 °C.
Consider `O=C(NCc1ccncc1)c1ccnc(N2CCN(Cc3ccc(F)cc3)C2=O)c1` [Example 15.2, 2-(3-(4-fluorobenzyl)-2-oxoimidazolidin-1-yl)-N-(pyridin-4-ylmethyl)isonicotinamide], for which the melting point is 205 to 207 °C.
In the case of `O=C(NCC1CC1)c1ccnc(N2CCN(Cc3ccc(F)cc3)C2=O)c1` [Example 15.5, N-(cyclopropylmethyl)-2-(3-(4-fluorobenzyl)-2-oxoimidazolidin-1-yl)isonicotinamide], the melting point was 135 to 137 °C.
In the case of `O=C(NCc1ccc(F)cc1)c1ccnc(N2CCN(CC3CC3)C2=O)c1` [Example 15.6, 2-(3-(cyclopropylmethyl)-2-oxoimidazolidin-1-yl)-N-(4-fluorobenzyl)isonicotinamide] it was 150 to 151 °C.
Molecule `O=C(NCCC1CC1)c1ccnc(N2CCN(Cc3ccc(F)cc3)C2=O)c1` [Example 15.7, N-(2-cyclopropylethyl)-2-(3-(4-fluorobenzyl)-2-oxoimidazolidin-1-yl)isonicotinamide] came in with a melting point of 123 to 125 °C.
`O=C(NCc1ccccc1)c1ccnc(N2CCN(CC3CC3)C2=O)c1` [Example 15.8, N-benzyl-2-(3-(cyclopropylmethyl)-2-oxoimidazolidin-1-yl)isonicotinamide] registered a melting point of 121 to 123 °C.
In the case of `O=C(NCc1cccnc1)c1ccnc(N2CCN(CC3CC3)C2=O)c1` [Example 15.9, 2-(3-(cyclopropylmethyl)-2-oxoimidazolidin-1-yl)-N-(pyridin-3-ylmethyl)isonicotinamide] it was 122 to 123 °C.
In the case of `O=C(NCc1ccccn1)c1ccnc(N2CCN(CC3CC3)C2=O)c1` [Example 15.10, 2-(3-(cyclopropylmethyl)-2-oxoimidazolidin-1-yl)-N-(pyridin-2-ylmethyl)isonicotinamide] it was 122 to 123 °C.
Consider `O=C(NCc1ccc(F)c(F)c1)c1ccnc(N2CCN(CC3CC3)C2=O)c1` [Example 15.12, 2-(3-(cyclopropylmethyl)-2-oxoimidazolidin-1-yl)-N-(3,4-difluorobenzyl)isonicotinamide], for which the melting point is 134 to 136 °C.
Molecule `O=C(NCc1ccccc1)c1ccnc(-n2cnn(CC3CC3)c2=O)c1` [Example 15.13, N-benzyl-2-(1-(cyclopropylmethyl)-5-oxo-1H-1,2,4-triazol-4(5H)-yl)isonicotinamide] registered a melting point of 137 to 139 °C.
Molecule `O=C(NCc1ccc(F)c(F)c1)c1ccnc(N2CCN(Cc3ccc(F)cc3)C2=O)c1` [Example 15.14, N-(3,4-difluorobenzyl)-2-(3-(4-fluorobenzyl)-2-oxoimidazolidin-1-yl)isonicotinamide] returned a melting point of 182 to 183 °C.
